PMC8533149 (Biomolecules, 2021)

Test system: HIV-1 LTR-III G-quadruplex (FAM/TAMRA-labeled LTR-III)
Assay: FRET melting assay, LTR-III G4
Assay type: binding
Settings: Table S1 primary screening, ligand:ODN 50:1, singlicate
Procedure: To evaluate stabilizing properties of the ligands in a complex with oligodeoxyribonucleotides (ODNs) melting with fluorescence registration was used. ODN (0.5 μM) (Table 1), labeled with 6-carboxyfluorescein (FAM) and 6-carboxytetramethylrhodamine (TAMRA) at the 5′- and 3′-end, respectively, were folded in lithium cacodylate buffer (10 mM, pH 7.4) with 100 mM KCl by heating at 95 °C for 5 min and gradually cooling to r.t. GFP chromophore analogs (5 mM solution in DMSO) were diluted with the same buffer to the final concentration of 25 μM and mixed with an equal volume of 0.5 μM ODN solution resulting in a molar ratio of 50:1 (total volume was 50 μL). For the titration experiments molar ratios of 20:1 and 2:1 were used. Samples were analyzed using DTprime qPCR system (DNA-Technology LLC, Moscow, Russia). Fluorescence was registered by detection of FAM emission at 520 nm upon excitation at 495 nm in the temperature range of 30–95 °C with 1 °C/min gradient. Tm was determined using the instrument software and ΔTm was calculated relative to ODN Tm in a buffer solution containing 0.25% (v/v) DMSO. The primary and secondary screening were carried out in singlicate and triplicate, respectively.

| SMILES | LTR-III ΔTm [°C] |
| --- | --- |
| COc1ccc2cc(CO)ccc2c1 [N 49] | -0.1 |
| CC1=CC(C)(C)N(C)c2ccc(C=CC3=NC(=Cc4ccc5c(c4)C(C)=CC(C)(C)N5C)C(=O)N3CCCC(=O)O)cc21 [N 62] | 0.6 |
| CC1=NC(=Cc2cc3c4c(c2)CCCN4CCC3)C(=O)N1CCO [N 111] | 1 |
| CC1=CC(C)(C)N(C)c2ccc(C=C3N=C(C)N(CCCCO)C3=O)cc21 [N 141] | 0.2 |
| CC1=NC(=Cc2cc3c4c(c2)CCCN4CCC3)C(=O)N1CCCC(=O)O [N 152] | 0.3 |
| Cc1ccc(C(O)=CC2=NC(=Cc3ccc(O)cc3)C(=O)N2C)cc1 [N 154] | -0.1 |
| CCN(CC)c1ccc(C=C2N=C(C)N(CCCCO[Si](c3ccccc3)(c3ccccc3)C(C)(C)C)C2=O)cc1 [N 162] | 0.2 |
| CCN(CC)c1ccc(C=C2N=C(C)N(CCCCO)C2=O)cc1 [N 182] | -0.1 |
| CCN(CC)c1ccc(C=C2N=C(C)N(CCCCCl)C2=O)cc1 [N 189] | 0.2 |
| COc1ccc(C=C2N=C(C=C(O)c3ccc(Br)cc3)N(C)C2=O)cc1 [N 537] | -0.3 |
| COc1ccc(C=C2N=C(C=C(O)c3cccs3)N(C)C2=O)cc1 [N 539.1] | 0 |
| CC1=NC(=Cc2ccc3cc(N4CCCC4)ccc3c2)C(=O)N1C [N 555.3] | 0.7 |
| CCNc1ccc2cc(Br)ccc2c1 [N 576.2] | 0 |
| Oc1ccc2cc(Br)ccc2c1 [N 576.3] | 0 |
| CCN(CC)c1ccc2c(C=CN(C)C)cc(=O)oc2c1 [N 582.1] | 0 |
| COc1ccc(C=C2N=CN(C)C2=O)cc1 [N 599.2] | -0.7 |
| CCN(CC)c1ccc2cc(C=C3N=C(C)N(C)C3=O)ccc2c1 [N 601.23] | -0.7 |
| CN1C=NC(=Cc2ccc(O[Si](c3ccccc3)(c3ccccc3)C(C)(C)C)cc2)C1=O [N 624] | -0.5 |
| CCN(CC)c1ccc(C=C2N=C3C=CC=CN3C2=O)cc1 [N 641] | -0.5 |
| CC1=NC(=Cc2ccc3c(c2)CCN3)C(=O)N1C [N 652.3] | 0.3 |
| CC1=NC(=Cc2ccc(N3CCCCC3)cc2)C(=O)N1C [N 665] | -0.3 |
| CC1=NC(=Cc2ccccc2O)C(=O)N1 [N 702.1] | 0 |

| SMILES | LTR-III ΔTm [°C] |
| --- | --- |
| CC1=NC(=Cc2ccc(N3CCCC3)cc2)C(=O)N1C [N 704] | -0.2 |
| CC1=NC(=Cc2ccc(N3CCCCCC3)cc2)C(=O)N1C [N 708.2] | 0.2 |
| CC1=NC(=Cc2ccc(N3CCC3)cc2)C(=O)N1C [N 710.12] | 0.1 |
| CN1C(=O)C(=Cc2ccncc2)N=C1C=Cc1ccncc1 [N 768] | 0.9 |
| CC1=NC(=Cc2cccc(F)c2O)C(=O)N1C [N 781] | 0 |
| CC1=NC(=Cc2ccc3[nH]c(C)c(C)c3c2)C(=O)N1C [N 792] | 0.2 |
| COc1ccc(C=CC2=NC(=Cc3ccncc3)C(=O)N2C)cc1 [N 813] | 0.6 |
| CC1=NC(=Cc2ccc[nH]2)C(=O)N1C [N 815] | -0.1 |
| O=C1C(=C2N=C3C=CC=CN3C2=O)N=C2C=CC=CN12 [N 817.2] | -0.1 |
| O=C1/C(=C/c2ccncc2)N=C2C=CC=CN12 [N 817] | 0 |
| CNC(=O)C(=Cc1ccc(C#N)cc1)N=[N+]=[N-] [N 830A] | -0.1 |
| CNC(=O)C(=Cc1ccccc1)N=[N+]=[N-] [N 830b] | -0.2 |
| CNC(=O)C(=Cc1ccc(C#N)cc1)N=P(c1ccccc1)(c1ccccc1)c1ccccc1 [N 831] | 0 |
| CNC(=O)C(=Cc1ccccc1)N=P(c1ccccc1)(c1ccccc1)c1ccccc1 [N 832] | -0.5 |
| CNC(=O)C(=Cc1ccncc1)N=P(c1ccccc1)(c1ccccc1)c1ccccc1 [N 833] | -0.6 |
| CC1=NC(=Cc2ccc(O)cc2O)C(=O)N1C [N 844.1] | -0.1 |
| CN1C(=O)C(=Cc2cc(Br)c(O)c(Br)c2)N=C1C=Cc1ccncc1 [N 848.1] | -1.8 |
| COc1ccc(OC)c(C=C2N=C(C=Cc3cc(Br)c(O)c(Br)c3)N(C)C2=O)c1 [N 851A] | 1.4 |
| COc1ccc(O)c(C=C2N=C(C=Cc3cc(Br)c(O)c(Br)c3)N(C)C2=O)c1 [N 851B] | 1.2 |
| CC1=NC(=Cc2cc(F)c(O)c(F)c2)C(=O)N1 [N 853] | -0.9 |
| CN1C(=O)C(=Cc2ccc(O)cc2O)N=C1C=Cc1cc(Br)c(O)c(Br)c1 [N 855] | 0.4 |
| CN1C(=O)C(=Cc2ccc(O)cc2)N=C1C=Cc1ccc2cc(N(C)C)ccc2c1 [N 861] | 0 |

| SMILES | LTR-III ΔTm [°C] |
| --- | --- |
| O=C1NC(/C=C/c2ccncc2)=NC/1=C\c1cc(F)c(O)c(F)c1 [N 863] | 0 |
| COc1cc(O)ccc1C=C1N=C(C)N(C)C1=O [N 865] | 0.8 |
| COc1cc(O)ccc1/C=C1N=C(/C=C/c2ccncc2)N(C)C\1=O [N 871B] | 0.4 |
| CN1C(=O)C(=Cc2ccc(O)cc2)N=C1C=Cc1cccc(C(F)(F)F)c1 [N 873] | 0.4 |
| CN1C(=O)C(=Cc2ccc(O)cc2)N=C1C=Cc1cc(Cl)nc(Cl)c1 [N 886] | -0.2 |
| CC1=NC(=Cc2cc(Cl)c(O)c(Cl)c2)C(=O)N1C [N 892] | -1 |
| CN1C(=O)C(=Cc2ccc(O)cc2)N=C1C=Cc1c(F)c(F)c(O)c(F)c1F [N 893] | -0.4 |
| CN1C(=O)C(=Cc2ccc(SSc3ccc(C=C4N=C(C=Cc5cc(Br)c(O)c(Br)c5)N(C)C4=O)cc3)cc2)N=C1C=Cc1cc(Br)c(O)c(Br)c1 [N 898] | 0.1 |
| CN1C(=O)C(=Cc2cc(Cl)c(O)c(Cl)c2)N=C1C=Cc1ccncc1 [N 901] | 0.4 |
| CN1C(=O)C(=Cc2ccc(O)cc2)N=C1C=Cc1cc(Cl)c(O)c(Cl)c1 [N 914] | -0.8 |
| COc1cc(O)ccc1C=C1N=C(C=Cc2cc(Cl)nc(Cl)c2)N(C)C1=O [N 960b] | 0.7 |
| COc1cc(O)ccc1C=C1N=C(C=Cc2c(F)c(F)nc(F)c2F)N(C)C1=O [N 967] | 0.8 |
| COc1cc(O)cc(OC)c1C=C1N=C(C=Cc2c(F)c(F)nc(F)c2F)N(C)C1=O [N 971] | 0.1 |
| COc1cc(O)cc(OC)c1C=C1N=C(C=Cc2cc(Cl)nc(Cl)c2)N(C)C1=O [N 973] | 2.3 |
| COc1cc(O)cc(OC)c1C=C1N=C(C)N(C)C1=O [N 976] | 0.5 |
| COc1cc(/C=C2N=C(/C=C/c3c(F)c(F)nc(F)c3F)N(C)C\2=O)cc(OC)c1O [N 980] | 1 |
| CC1=NC(=Cc2ccc(C)o2)C(=O)N1C [N 1020] | -0.2 |
| CC1=NC(=Cc2cccs2)C(=O)N1C [N 1021] | 0.3 |
| COc1c(O)ccc(C=C2N=C(C)N(C)C2=O)c1OC [N 1027.1] | -0.1 |
| COc1cc(/C=C2\N=C(C)N(C)C2=O)c(OC)cc1O [N 1036] | 0.5 |
| COc1cc(O)ccc1/C=C1N=C(/C=C/c2cccs2)N(C)C\1=O [N 1039] | 1.1 |
| COc1c(O)ccc(/C=C2\N=C(C)N(C)C2=O)c1O [N 1042] | 1.4 |

| SMILES | LTR-III ΔTm [°C] |
| --- | --- |
| COc1cc(/C=C2N=C(/C=C/c3ccncc3)N(C)C\2=O)c(OC)cc1O [N 1048] | 1.5 |
| COc1cc(O)ccc1C=C1N=C(C=CN2CCCC2)N(C)C1=O [N 1118] | 3 |
| COc1cc(O)ccc1C=C1N=C2C=CC=CN2C1=O [N 1123] | 0.3 |
| COc1cc(O)ccc1/C=C1\N=C(C(C)=O)N(C)C1=O [N 1124] | 1.3 |
| COc1cc(O)ccc1C=C1N=C(Cc2ccccc2)N(C)C1=O [N 1135] | 0 |
| COc1cc(O)ccc1/C=C1\N=C(C(=O)c2ccccc2)N(C)C1=O [N 1139] | 0.6 |
| COc1cc(O)ccc1C=C1N=C(C(=Cc2ccncc2)c2ccccc2)N(C)C1=O [N 1142] | 0.1 |
| CCCCN(CCCC)c1ccc(C=C2N=C(C)N(C)C2=O)cc1 [SA 33] | 0.2 |
| CN1C(=O)C(=Cc2ccc(O)c(F)c2)N=C1c1ccccc1 [SA 49.1] | 0 |
| CC1=NC(=Cc2ccc(O)c(F)c2)C(=O)N1CC(N)=O [SA 99] | 0.1 |
| O=C1CN2C(=O)C(=Cc3ccc(O)cc3)N=C2C(=O)N1 [SA 102] | 0.2 |
| CN1C(=O)CN2C(=O)C(=Cc3ccc(O)cc3)N=C2C1=O [SA 108] | -0.1 |
| CCOC(=O)CN1C(=O)C(=Cc2cccc([N+](=O)[O-])c2)N=C1C [SA 111] | -0.1 |
| CCOC(=O)CN1C(=O)C(=Cc2ccc(OC)cc2)N=C1C [SA 117] | -0.2 |
| CC1=NC(=Cc2cccc([N+](=O)[O-])c2)C(=O)N1CC(N)=O [SA 128] | 0.1 |
| COc1ccc(C=C2N=C3C(=O)NC(=O)CN3C2=O)cc1 [SA 130] | 0.4 |
| CCOC(=O)CN1C(=O)C(=Cc2ccccc2)N=C1C [SA 148] | -1.3 |
| CC1=NC(=Cc2ccccc2)C(=O)N1CC(N)=O [SA 152] | -0.3 |
| COc1ccc(C=C2N=C(Nc3ccc(Br)cc3)N(C)C2=O)cc1 [SA 158] | 0.2 |
| COc1ccc(C=C2N=C(Nc3ccc(OC)cc3)N(C)C2=O)cc1 [SA 168] | -0.4 |
